Laboratory results reported in patent US9051295B2, “1-substituted indazole derivative” (Dainippon Sumitomo Pharma Co., Ltd., priority 2012, dated 2015).

Experiments:
human α7 nAChR = molecular target: T1, human α7 nAChR (Homo sapiens, UniProt P36544); assay: Evaluation of PAM activity with human α7 nACh receptor stably expressing cells (aequorin luminescence, FDSS7000, ACh EC20); assay type: cell-based; conditions: test compound 10 μmol/L; ACh at EC20; ratio of RLU (Max-Min) of test-compound wells to control wells
T1 construct: expressed in transfected cells; host or cells: GH4C1 cells (rat pituitary, ATCC CCL-82.2)
T1 sequence (P36544 23-502): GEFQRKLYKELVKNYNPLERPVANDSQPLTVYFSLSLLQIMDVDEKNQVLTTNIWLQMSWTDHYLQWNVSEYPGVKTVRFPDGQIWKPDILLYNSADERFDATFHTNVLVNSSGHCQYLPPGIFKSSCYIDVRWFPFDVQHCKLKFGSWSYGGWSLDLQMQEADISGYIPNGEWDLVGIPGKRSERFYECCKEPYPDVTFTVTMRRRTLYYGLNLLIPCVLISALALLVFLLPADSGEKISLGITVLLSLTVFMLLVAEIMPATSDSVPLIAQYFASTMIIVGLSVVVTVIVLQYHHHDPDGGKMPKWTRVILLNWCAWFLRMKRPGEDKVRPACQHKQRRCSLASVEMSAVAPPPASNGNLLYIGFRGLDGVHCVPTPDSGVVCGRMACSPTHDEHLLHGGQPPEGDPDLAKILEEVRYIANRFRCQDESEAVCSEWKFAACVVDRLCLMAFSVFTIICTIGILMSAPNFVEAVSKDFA
Source text: Evaluation of PAM Activity with Human α7 nACh Receptor Stably Expressing Cells
(1) Human α7 nAChR Stably Expressing Cells
Human α7 nAChR stably expressing cells were generated and cultured. In detail, GH4C1 cells derived from rat pituitary (cat#CCL-82.2, ATCC, USA) were used as a host cell. PcDNA3.1Zeo vector containing a nucleotide sequence encoding a protein GenBank BAC81731 and pcDNA3.1 vector containing human α7 nAChR gene (cat#V790-20, invitrogen, Carlsbad, Calif., USA) were transfected to the cells to give aequorins and human α7 nAChR stably expressing cells respectively. The aequorins and human α7 nAChR stably expressing cells were screened with Zeocin (cat#R25001, invitrogen, Carlsbad, Calif., USA) and Geneticin (cat#10131-027, invitrogen, Carlsbad, Calif., USA) respectively.
The cells were cultured in F-10 Nutrient Mixture (Ham) medium (cat#11550-043, invitrogen, Carlsbad, Calif., USA) containing 2.5% fetal bovine serum (cat#2917354, ICN Biomedicals, Inc, USA), 15% inactivated horse serum (cat#26050-088, invitrogen, Carlsbad, Calif., USA), 1 μg/mL Geneticin, and 5 μg/mL Puromycin (cat#14861-84, invitrogen, Carlsbad, Calif., USA), in a Collagen Type 1-coated dish (cat#4030-010, iwaki, Tokyo, Japan). During the culture, the medium was replaced with fresh medium in every 2 to 3 days, and the cells were treated with TrypLE Express (cat#45604-021, invitrogen, Carlsbad, Calif., USA) to collect them in every 7 days. Thus, the cells were subcultured.
7 Days after subculturing, the cells were treated with TrypLE Express to collect them when they were about 80% confluent. The cells were suspended in a reaction medium containing Hanks (cat#14065-056, invitrogen, Carlsbad, Calif., USA)/20 mmol/L Hepes (cat#15630-080, invitrogen, Carlsbad, Calif., USA), Buffer (pH 7.4), F-10 Nutrient Mixture (Ham), and 0.1 mg/mL Geneticin, and the suspension was seeded in a 384-well plate (cat#781090, Greiner, Germany) at 20000 cells/25 μL per well.
On the next day after seeding, Viviren (cat#E649X, Promega, Madison, Wis., USA) was added to the medium so that the final concentration could be 4 μmol/L (15 μL/well). The plates were centrifuged and then placed in the dark for 4 hours at room temperature.
(2) Preparation of the Test Samples
Each of the test compounds was dissolved in DMSO to prepare each test sample at a concentration of 1000-fold the final concentration. To the solution was added Hanks/20 mM HEPES/0.2% BSA (cat#A3803, Sigma, St. Louis, Mo., USA), and the concentration was adjusted to 6-fold the final concentration.
(3) Evaluation of PAM Activity
FDSS7000 (Hamamatsu Photonics) was used to detect the luminescence signal evoked by α7 nAChR stimulation. The cells and a luminescent substrate were put on a plate, and the test sample was added thereto. […] After the addition of ACh, the luminescence signal (the central wavelength: 465 nm) was measured for 138 seconds to calculate RLU (Max-Min). The ratio of the RLU (Max-Min) of the test-compound-containing wells to that of the control wells was defined as PAM activity.

Slc: ddY mice = assay: Novel object recognition test in mice (mORT); assay type: in vivo; conditions: at 0.3 mg/kg, 1.0 mg/kg or 3 mg/kg
Protocol: Evaluation of Cognitive Function with Mice in Novel Object Recognition Test (Hereinafter, Referred to as “mORT”)
Slc: ddY mice (25 g to 30 g, male, Japan SLC) can be used in the novel object recognition test wherein the interval between the 1st trial (training) and the 2nd trial (test) correlates with the memory loss for the objects used in the 1st trial, and a significant memory-loss is observed when the 2nd trial is performed 24 hours after the 1st trial. According to the test mechanism, the present compounds were administered prior to the 1st trial, and the enhancement effect on memory in the 2nd trial was evaluated.

| α7PAM (%) @ 10 μmol/L (human α7 nAChR) [%] | SMILES | efficacy at higher doses (Slc: ddY mice) |
| --- | --- | --- |
| 1096 | CCc1ccc2c(cnn2C2CCN(C(=O)N[C@H]3CC[C@H](OC)CC3)CC2)c1OC [Example 255, 4-(5-ethyl-4-methoxy-1H-indazol-1-yl)-N-(trans-4-methoxycyclohexyl)piperidine-1-carboxamide] |  |
| 1093 | CCc1ccc2c(cnn2C2CCN(C(=O)NC3CCOCC3)CC2)c1OC [Example 275, 4-(5-ethyl-4-methoxy-1H-indazol-1-yl)-N-(tetrahydro-2H-pyran-4-yl)piperidine-1-carboxamide] |  |
| 380 | O=C(NC1CCOCC1)N1CCC(n2ncc3c(OC(F)(F)F)cccc32)CC1 [Example 304] |  |

The next lines start with the compound.

| SMILES | α7PAM (%) @ 10 μmol/L (human α7 nAChR) [%] | efficacy at higher doses (Slc: ddY mice) |
| --- | --- | --- |
| CO[C@H]1CC[C@H](NC(=O)N2CCC(n3ncc4cc(C)ccc43)CC2)CC1 [Example 1, N-(trans-4-methoxycyclohexyl)-4-(5-methyl-1H-indazol-1-yl)piperidine-1-carboxamide] | 1209 | the efficacy did not decrease |
| CO[C@H]1CC[C@H](NC(=O)N2CCC(n3ncc4cc(C5CC5)ccc43)CC2)CC1 [Example 74, 4-(5-cyclopropyl-1H-indazol-1-yl)-N-(trans-4-methoxycyclohexyl)piperidine-1-carboxamide] | 1226 | the efficacy did not decrease |
| CO[C@H]1CC[C@H](NC(=O)N2CCC(n3ncc4cc(OC(F)F)ccc43)CC2)CC1 [Example 291, 4-[5-(difluoromethoxy)-1H-indazol-1-yl]-N-(trans-4-methoxycyclohexyl)piperidine-1-carboxamide] | 1433 |  |
| O=C(NC1CCOCC1)N1CCC(n2ncc3cc(C(F)(F)F)ccc32)CC1 [Example 297] | 340 |  |
| COc1c(C(F)(F)F)ccc2c1cnn2C1CCN(C(=O)NC2CCC(OC)CC2)CC1 (stereo not shown) [Example 317] | 360 |  |
